The record followed here is PMC7946642, “Vacuolin-1 inhibits endosomal trafficking and metastasis via CapZβ” (Oncogene, 2021).

For this assay, the target named is T1, CapZβ (Homo sapiens, UniProt P47756).
T1 construct: gene CAPZB; recombinant CapZβ
Put plainly: isothermal titration calorimetry. Format: binding. Conditions: biotinylated vacuolin-1 analogue; labelled compound.

T1 sequence (P47756 2-272): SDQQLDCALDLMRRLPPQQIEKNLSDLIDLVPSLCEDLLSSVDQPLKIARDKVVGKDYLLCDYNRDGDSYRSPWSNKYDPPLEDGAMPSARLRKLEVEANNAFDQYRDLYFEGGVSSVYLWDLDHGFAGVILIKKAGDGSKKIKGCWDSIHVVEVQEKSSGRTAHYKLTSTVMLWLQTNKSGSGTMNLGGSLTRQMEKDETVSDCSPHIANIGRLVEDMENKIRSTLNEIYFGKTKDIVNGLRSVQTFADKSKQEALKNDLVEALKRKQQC

By Kd is commonly meant the concentration at which binding is half-saturated. Read a low Kd as a tighter complex. Substance biotin-V1 had a Kd of about 3.1 µM.
